Measurements reported in PMC10700596 (Nature Communications, 2023).
Several values for one entry are separate records, joined by “and”; a condition that tells them apart may be missing. Equal values may be shown once.

Assays:
CDK9 = CDK9 (Homo sapiens, UniProt P50750); assay: biochemical; type: binding; settings: 10000 nM; read-out: Percent Control
TSSK1B = TSSK1B (Homo sapiens, UniProt Q9BXA7); assay: biochemical; type: binding; settings: 10000 nM; read-out: Percent Control
ERBB4 = ERBB4 (Homo sapiens, UniProt Q15303); assay: biochemical; type: binding; settings: 10000 nM; read-out: Percent Control
TIE2 = TIE2 (Homo sapiens, UniProt Q02763); assay: biochemical; type: binding; settings: 10000 nM; read-out: Percent Control
320 GPCRs [1] = biological target: 320 GPCRs (Homo sapiens, UniProt O00421); type: cell-based
320 GPCRs [2] = biological target: 320 GPCRs (Homo sapiens, UniProt Q9UKP6); type: cell-based
320 GPCRs [3] = biological target: 320 GPCRs (Homo sapiens, UniProt O14804); type: cell-based
320 GPCRs [4] = biological target: 320 GPCRs (Homo sapiens, UniProt O00222); type: cell-based
320 GPCRs [5] = biological target: 320 GPCRs (Homo sapiens, UniProt O15218); type: cell-based
320 GPCRs [6] = biological target: 320 GPCRs (Homo sapiens, UniProt Q8IZF5); type: cell-based
320 GPCRs [7] = biological target: 320 GPCRs (Homo sapiens, UniProt P51685); type: cell-based
320 GPCRs [8] = biological target: 320 GPCRs (Homo sapiens, UniProt P25100); type: cell-based
Sequence of 320 GPCRs (Homo sapiens, UniProt P25100) (P25100 whole entry): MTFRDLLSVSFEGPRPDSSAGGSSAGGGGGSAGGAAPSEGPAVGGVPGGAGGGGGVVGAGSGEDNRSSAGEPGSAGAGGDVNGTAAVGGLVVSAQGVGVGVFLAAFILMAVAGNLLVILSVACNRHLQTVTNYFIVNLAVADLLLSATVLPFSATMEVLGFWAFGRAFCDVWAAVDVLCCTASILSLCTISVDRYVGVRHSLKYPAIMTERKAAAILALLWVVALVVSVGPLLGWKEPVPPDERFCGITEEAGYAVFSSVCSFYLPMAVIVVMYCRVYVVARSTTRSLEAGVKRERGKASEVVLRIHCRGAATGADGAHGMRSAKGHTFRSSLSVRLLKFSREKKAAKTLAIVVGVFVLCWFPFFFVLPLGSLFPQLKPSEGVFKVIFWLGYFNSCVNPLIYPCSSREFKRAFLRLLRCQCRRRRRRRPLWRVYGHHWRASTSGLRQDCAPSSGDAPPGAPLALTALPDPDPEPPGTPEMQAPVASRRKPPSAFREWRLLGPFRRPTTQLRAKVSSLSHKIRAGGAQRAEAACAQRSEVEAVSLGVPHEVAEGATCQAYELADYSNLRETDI

Sequence of 320 GPCRs (Homo sapiens, UniProt O00222) (O00222 34-908): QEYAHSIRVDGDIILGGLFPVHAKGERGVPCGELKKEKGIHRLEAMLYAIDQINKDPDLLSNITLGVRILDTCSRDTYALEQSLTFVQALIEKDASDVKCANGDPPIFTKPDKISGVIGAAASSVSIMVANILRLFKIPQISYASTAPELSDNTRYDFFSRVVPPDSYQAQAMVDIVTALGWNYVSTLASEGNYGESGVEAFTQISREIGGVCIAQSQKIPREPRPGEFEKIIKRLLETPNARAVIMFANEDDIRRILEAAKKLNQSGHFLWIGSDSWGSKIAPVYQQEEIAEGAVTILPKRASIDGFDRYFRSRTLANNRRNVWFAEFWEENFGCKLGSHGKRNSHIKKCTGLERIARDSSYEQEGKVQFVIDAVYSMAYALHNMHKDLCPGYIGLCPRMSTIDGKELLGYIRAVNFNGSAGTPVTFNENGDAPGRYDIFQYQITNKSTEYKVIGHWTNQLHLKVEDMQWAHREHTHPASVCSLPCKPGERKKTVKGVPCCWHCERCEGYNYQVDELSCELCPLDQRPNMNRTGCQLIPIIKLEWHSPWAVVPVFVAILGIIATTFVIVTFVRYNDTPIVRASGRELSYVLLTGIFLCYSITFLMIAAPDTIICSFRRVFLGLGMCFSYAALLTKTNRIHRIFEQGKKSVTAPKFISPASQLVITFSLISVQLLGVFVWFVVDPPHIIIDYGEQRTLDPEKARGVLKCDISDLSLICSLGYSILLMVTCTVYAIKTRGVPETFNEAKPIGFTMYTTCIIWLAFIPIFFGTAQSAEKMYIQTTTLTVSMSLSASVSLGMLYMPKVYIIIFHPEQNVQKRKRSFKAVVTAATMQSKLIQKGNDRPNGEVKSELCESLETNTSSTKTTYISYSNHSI
Sequence of 320 GPCRs (Homo sapiens, UniProt P51685) (P51685 whole entry): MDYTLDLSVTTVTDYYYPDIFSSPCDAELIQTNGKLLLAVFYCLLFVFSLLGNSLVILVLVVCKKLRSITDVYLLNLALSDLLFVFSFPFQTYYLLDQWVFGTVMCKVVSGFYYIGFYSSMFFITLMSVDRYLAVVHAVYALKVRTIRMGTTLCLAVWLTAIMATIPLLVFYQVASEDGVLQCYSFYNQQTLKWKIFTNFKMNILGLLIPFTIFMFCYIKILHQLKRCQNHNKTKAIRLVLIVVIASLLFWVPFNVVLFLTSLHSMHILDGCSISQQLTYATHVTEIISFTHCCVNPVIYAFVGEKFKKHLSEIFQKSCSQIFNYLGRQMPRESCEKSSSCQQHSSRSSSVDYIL
Sequence of 320 GPCRs (Homo sapiens, UniProt Q9UKP6) (Q9UKP6 whole entry): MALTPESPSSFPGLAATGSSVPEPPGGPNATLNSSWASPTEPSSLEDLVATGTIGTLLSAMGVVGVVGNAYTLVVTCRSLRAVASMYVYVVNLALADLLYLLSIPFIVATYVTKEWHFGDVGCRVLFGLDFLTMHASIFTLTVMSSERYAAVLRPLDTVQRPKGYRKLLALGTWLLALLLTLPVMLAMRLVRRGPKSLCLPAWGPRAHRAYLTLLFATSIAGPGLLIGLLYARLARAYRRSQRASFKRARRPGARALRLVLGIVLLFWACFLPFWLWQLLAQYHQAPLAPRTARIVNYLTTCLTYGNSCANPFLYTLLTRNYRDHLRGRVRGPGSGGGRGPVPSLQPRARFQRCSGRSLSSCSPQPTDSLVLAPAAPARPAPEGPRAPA
Sequence of 320 GPCRs (Homo sapiens, UniProt O14804) (O14804 whole entry): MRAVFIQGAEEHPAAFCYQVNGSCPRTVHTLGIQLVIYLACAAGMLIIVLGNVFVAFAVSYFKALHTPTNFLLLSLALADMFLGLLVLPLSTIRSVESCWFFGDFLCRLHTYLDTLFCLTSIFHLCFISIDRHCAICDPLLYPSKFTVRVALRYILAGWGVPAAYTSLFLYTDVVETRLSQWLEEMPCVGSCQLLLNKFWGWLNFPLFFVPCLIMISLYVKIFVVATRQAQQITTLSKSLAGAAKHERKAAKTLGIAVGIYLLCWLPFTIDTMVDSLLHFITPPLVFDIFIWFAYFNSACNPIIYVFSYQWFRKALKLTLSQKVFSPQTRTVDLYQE
Sequence of 320 GPCRs (Homo sapiens, UniProt O15218) (O15218 whole entry): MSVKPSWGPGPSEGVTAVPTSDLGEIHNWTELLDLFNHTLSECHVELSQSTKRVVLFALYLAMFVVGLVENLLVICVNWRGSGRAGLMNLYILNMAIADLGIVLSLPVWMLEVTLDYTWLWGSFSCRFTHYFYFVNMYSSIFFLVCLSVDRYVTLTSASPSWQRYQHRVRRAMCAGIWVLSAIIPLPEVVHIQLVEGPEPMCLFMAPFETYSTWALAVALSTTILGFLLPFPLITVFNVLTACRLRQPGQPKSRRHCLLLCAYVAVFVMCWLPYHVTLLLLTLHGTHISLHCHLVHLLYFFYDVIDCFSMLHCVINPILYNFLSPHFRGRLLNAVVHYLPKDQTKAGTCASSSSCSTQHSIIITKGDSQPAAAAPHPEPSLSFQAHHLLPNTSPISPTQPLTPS
Sequence of 320 GPCRs (Homo sapiens, UniProt Q8IZF5) (Q8IZF5 26-1079): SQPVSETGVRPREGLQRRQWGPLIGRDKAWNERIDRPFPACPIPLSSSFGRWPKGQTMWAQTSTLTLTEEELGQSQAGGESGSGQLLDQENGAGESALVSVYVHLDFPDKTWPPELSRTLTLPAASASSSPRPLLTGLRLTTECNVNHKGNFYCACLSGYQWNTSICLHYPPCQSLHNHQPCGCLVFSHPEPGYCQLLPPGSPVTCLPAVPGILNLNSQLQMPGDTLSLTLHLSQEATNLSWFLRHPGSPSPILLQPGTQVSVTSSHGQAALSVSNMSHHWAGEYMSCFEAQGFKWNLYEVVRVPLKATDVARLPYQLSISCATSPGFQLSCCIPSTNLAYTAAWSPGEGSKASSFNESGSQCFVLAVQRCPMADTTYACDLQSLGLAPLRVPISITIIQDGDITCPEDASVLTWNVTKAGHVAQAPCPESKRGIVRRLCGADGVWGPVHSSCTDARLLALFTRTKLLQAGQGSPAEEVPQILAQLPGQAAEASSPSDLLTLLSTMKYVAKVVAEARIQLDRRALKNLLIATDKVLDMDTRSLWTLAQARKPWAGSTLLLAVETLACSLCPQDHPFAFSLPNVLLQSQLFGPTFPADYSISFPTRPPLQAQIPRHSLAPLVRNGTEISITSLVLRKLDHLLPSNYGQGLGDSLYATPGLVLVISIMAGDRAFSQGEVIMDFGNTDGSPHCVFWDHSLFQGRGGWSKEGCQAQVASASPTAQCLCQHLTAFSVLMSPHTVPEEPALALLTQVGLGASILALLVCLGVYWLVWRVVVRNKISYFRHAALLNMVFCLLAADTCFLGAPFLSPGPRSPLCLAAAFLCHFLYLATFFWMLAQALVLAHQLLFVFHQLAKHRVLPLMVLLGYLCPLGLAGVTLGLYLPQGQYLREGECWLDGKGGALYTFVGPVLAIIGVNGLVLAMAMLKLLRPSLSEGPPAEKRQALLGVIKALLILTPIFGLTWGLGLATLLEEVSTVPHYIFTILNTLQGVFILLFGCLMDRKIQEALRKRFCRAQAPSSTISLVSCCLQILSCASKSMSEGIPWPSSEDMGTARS
Sequence of 320 GPCRs (Homo sapiens, UniProt O00421) (O00421 whole entry): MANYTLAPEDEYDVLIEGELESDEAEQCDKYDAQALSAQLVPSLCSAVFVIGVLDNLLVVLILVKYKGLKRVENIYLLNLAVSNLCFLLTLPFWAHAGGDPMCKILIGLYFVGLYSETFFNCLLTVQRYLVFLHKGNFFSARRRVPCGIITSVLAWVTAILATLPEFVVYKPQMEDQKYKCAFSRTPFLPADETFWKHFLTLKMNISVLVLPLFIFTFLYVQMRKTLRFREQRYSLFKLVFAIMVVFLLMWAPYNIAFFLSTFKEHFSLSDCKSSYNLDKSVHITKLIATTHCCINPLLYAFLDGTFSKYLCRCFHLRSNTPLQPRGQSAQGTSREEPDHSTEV
Sequence of CDK9 (P50750 whole entry): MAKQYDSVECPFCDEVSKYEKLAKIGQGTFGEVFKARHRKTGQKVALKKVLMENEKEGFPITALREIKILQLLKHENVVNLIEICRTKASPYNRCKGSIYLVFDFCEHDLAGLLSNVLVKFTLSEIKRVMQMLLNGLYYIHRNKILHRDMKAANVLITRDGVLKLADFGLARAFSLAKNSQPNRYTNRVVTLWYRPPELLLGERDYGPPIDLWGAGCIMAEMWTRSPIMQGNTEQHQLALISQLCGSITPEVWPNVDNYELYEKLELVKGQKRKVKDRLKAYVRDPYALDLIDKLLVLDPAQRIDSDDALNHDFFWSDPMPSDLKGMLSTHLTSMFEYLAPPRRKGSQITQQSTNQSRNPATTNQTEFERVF

## O=C(O)C1CCC2(CC1)CC(Nc1ncnc3[nH]c4c(F)cccc4c13)C2 (stereo not drawn) [Compound 74, OC(=O)C1CCC2(CC(C2)NC=3N=CN=C4NC=5C(F)=CC=CC5C34)CC1]
CDK9
  remaining activity at 10 µM: 97%
TSSK1B
  remaining activity at 10 µM: 52%
ERBB4
  remaining activity at 10 µM: 99%
TIE2
  remaining activity at 10 µM: 81%
320 GPCRs [1]
  RLU (Fold over Basal): 2.1 Fold over Basal and 1.6 Fold over Basal and 1.9 Fold over Basal and 2.4 Fold over Basal
320 GPCRs [2]
  RLU (Fold over Basal): 0.6 Fold over Basal and 0.7 Fold over Basal and 0.9 Fold over Basal
320 GPCRs [3]
  RLU (Fold over Basal): 1.3 Fold over Basal and 0.9 Fold over Basal and 1.4 Fold over Basal and 0.8 Fold over Basal
320 GPCRs [4]
  RLU (Fold over Basal): 1.1 Fold over Basal and 0.8 Fold over Basal and 1.5 Fold over Basal
320 GPCRs [5]
  RLU (Fold over Basal): 0.5 Fold over Basal and 0.9 Fold over Basal and 0.6 Fold over Basal
320 GPCRs [6]
  RLU (Fold over Basal): 1.6 Fold over Basal and 1.9 Fold over Basal and 1.1 Fold over Basal and 1.2 Fold over Basal
320 GPCRs [7]
  RLU (Fold over Basal): 1.6 Fold over Basal and 1.2 Fold over Basal and 0.8 Fold over Basal and 1.5 Fold over Basal
320 GPCRs [8]
  RLU (Fold over Basal): 1.5 Fold over Basal and 1.7 Fold over Basal and 1.6 Fold over Basal and 0.9 Fold over Basal
